Here are results for 8 molecules from ChEMBL document CHEMBL1140033 (J Med Chem, 2008).

pEC50, pIC50: −log10 of the molar value. Active and inactive are the calls of the source. No cut-off for these calls is given here.

The first assay deals with T1, Rhodopsin (Bos taurus, UniProt P02699). Briefly: Inhibition of bovine retinal rod outer-segment photoactivated rhodopsin-transducer interaction by transducer release assay.
T1 sequence (P02699 whole entry): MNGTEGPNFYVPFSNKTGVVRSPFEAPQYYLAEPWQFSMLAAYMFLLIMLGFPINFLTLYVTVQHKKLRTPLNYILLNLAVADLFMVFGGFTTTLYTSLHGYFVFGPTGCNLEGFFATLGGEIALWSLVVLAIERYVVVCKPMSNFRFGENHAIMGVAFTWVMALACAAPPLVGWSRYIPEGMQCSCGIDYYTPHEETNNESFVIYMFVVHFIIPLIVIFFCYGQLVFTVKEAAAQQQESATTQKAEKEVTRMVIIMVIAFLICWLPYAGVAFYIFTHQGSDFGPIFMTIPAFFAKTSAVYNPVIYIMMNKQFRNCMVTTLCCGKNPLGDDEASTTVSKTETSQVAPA
The term pIC50 denotes the negative decadic logarithm of the IC50, by convention in mol/L. As for `C[C@H]1[C@H](C)CC[C@]2(C(=O)O)CC[C@]3(C)C(=CC[C@@H]4[C@@]5(C)C[C@@H](O)[C@H](O)[C@@](C)(CO)[C@@H]5[C@H](O)C[C@]43C)[C@H]12` [MADECASSIC ACID], the pIC50 was 3.74.

Another assay has as its target T1, Rhodopsin. Briefly: Binding affinity to photoactivated rhodopsin in bovine retinal rod outer-segment membranes assessed as induction of extra receptor MII state stabilization by UV/visible difference spectroscopy.
The pEC50 is −log10 of the EC50, conventionally taken in molar units. On to `C[C@H]1[C@H](C)CC[C@]2(C(=O)O)CC[C@]3(C)C(=CC[C@@H]4[C@@]5(C)C[C@@H](O)[C@H](O)[C@@](C)(CO)[C@@H]5[C@H](O)C[C@]43C)[C@H]12` [MADECASSIC ACID], for which the pEC50 is 3.92.

For the next assay, the target named is Rhodopsin (Bos taurus) (UniProt P02699). The assay is described as follows: Binding affinity to photoactivated rhodopsin in bovine retinal rod outer-segment membranes assessed as induction of extra receptor MII state stabilization at 250 uM by UV/visible difference spectroscopy.
Rhodopsin (Bos taurus), sequence (P02699 whole entry): as above
Turning to `C[C@]12CCC(=O)C=C1CC[C@@H]1[C@@H]2[C@@H](O)C[C@@]2(C)[C@H]1CC[C@]2(O)[C@@H](O)CO`, the outcome was Active.
On to `CC1(C)CC[C@]2(C(=O)O)CC[C@]3(C)C(=CC[C@@H]4[C@@]5(C)CC[C@H](O)C(C)(C)[C@@H]5CC[C@]43C)[C@@H]2C1`, for which the outcome was Active.
Same read-out and setting: the same measure for `CC1(C)[C@@H](O)CC[C@]2(C)[C@H]3C(=O)C=C4[C@@H]5C[C@@](C)(C(=O)O)CC[C@]5(C)CC[C@@]4(C)[C@]3(C)CC[C@@H]12`: “Active”; for `C[C@]12CC[C@H]3[C@@H](CCC4=CC(=O)CC[C@@]43C)[C@@H]1CC[C@@H]2CCOS(=O)(=O)c1ccc(Br)cc1`: “Active”; for `C[C@H]1[C@H](C)CC[C@]2(C(=O)O)CC[C@]3(C)C(=CC[C@@H]4[C@@]5(C)CC[C@H](O)C(C)(C)[C@@H]5CC[C@]43C)[C@H]12`: “Active”.
Take `CC1(C)CC[C@]2(C(=O)O)CC[C@]3(C)C(=CC[C@@H]4[C@@]5(C)C[C@H](O)[C@H](O)[C@@](C)(C(=O)O)[C@@H]5CC[C@]43C)[C@@H]2C1`: the outcome was Active.
In the case of `CC1(C)[C@@H](O)CC[C@]2(C)[C@H]3C(=O)C=C4C5C[C@@](C)(C(=O)O)CC[C@]5(C)CC[C@@]4(C)[C@]3(C)CC[C@@H]12` (single isomer, unassigned), the result was Active.
